Tests used:
SETFA [1] = test: greenhouse herbicidal activity, pre-emergence treatment; assay type: in vivo, Setaria faberi; conditions: pre-emergence method, scale 0 to 100
Text: (§1) The culture containers used were plastic flowerpots containing loamy sand with approximately 3.0% of humus as the substrate. The seeds of the test plants were sown separately for each species.
(§2) For the pre-emergence treatment, the active ingredients, which had been suspended or emulsified in water, were applied directly after sowing by means of finely distributing nozzles. The containers were irrigated gently to promote germination and growth and subsequently covered with transparent plastic hoods until the test plants had rooted. This cover caused uniform germination of the test plants, unless this had been impaired by the active ingredients. For the post-emergence treatment, the test plants were first grown to a height of 3 to 15 cm, depending on the plant habit, and only then treated with the active ingredients which had been suspended or emulsified in water. For this purpose, the test plants were either sown directly and grown in the same containers, or they were first grown separately as seedlings and transplanted into the test containers a few days prior to treatment.
(§3) Depending on the species, the test plants were kept at 10-25° C. or 20-35° C., respectively. The test period extended over 2 to 4 weeks. During this time, the test plants were tended, and their response to the individual treatments was evaluated.
(§4) Evaluation was carried out using a scale from 0 to 100. […]

ECHCG [2] = test: as above; assay type: in vivo, Echinocloa crus-galli; conditions: pre-emergence method, application rate 0,250 kg/ha; scale 0 to 100
Text: as §1, §2, §3, §4

ECHCG [3] = test: greenhouse herbicidal activity, post-emergence treatment; assay type: in vivo, Echinocloa crus-galli; conditions: post-emergence method, scale 0 to 100
Text: as §1, §2, §3, §4

AVEFA = test: as above; assay type: in vivo, Avena fatua; conditions: post-emergence method, scale 0 to 100
Text: as §1, §2, §3
Evaluation was carried out using a scale from 0 to 100. 100 means no emergence of the test plants, or complete destruction of at least the aerial moieties, and 0 means no damage, or normal course of growth. A good herbicidal activity is given at values of 80 to 90 and a very good herbicidal activity is given at values of 90 to 100.
The test plants used in the greenhouse experiments were of the following species: Bayer code Scientific name

APESV = test: greenhouse herbicidal activity, pre-emergence treatment; assay type: in vivo, Apera spica-venti; conditions: pre-emergence method, application rate 1,000 kg/ha; scale 0 to 100
Text: as §1, §2, §3, §4

AMARE [4] = test: as above; assay type: in vivo, Amaranthus retroflexus; conditions: pre-emergence method, application rate 0,500 kg/ha; scale 0 to 100
Text: as §1, §2, §3, §4

AMARE [5] = test: greenhouse herbicidal activity, post-emergence treatment; assay type: in vivo, Amaranthus retroflexus; conditions: post-emergence method, application rate 0,250 kg/ha; scale 0 to 100
Text: as §1, §2, §3, §4

ABUTH [6] = test: as above; assay type: in vivo, Abutilon theophrasti; conditions: post-emergence method, scale 0 to 100
Text: as §1, §2, §3, §4

SETFA [7] = test: as above; assay type: in vivo, Setaria faberi; conditions: post-emergence method, application rate 62.5 g/ha; scale 0 to 100
Text: as §1, §2, §3, §4

ALOMY = test: as above; assay type: in vivo, Alopercurus myosuroides; conditions: post-emergence method, scale 0 to 100
Text: as §1, §2, §3, §4

SETVI = test: as above; assay type: in vivo, Setaria viridis; conditions: post-emergence method, application rate 16.0 g/ha; scale 0 to 100
Text: as §1, §2, §3, §4

LOLMU = test: as above; assay type: in vivo; conditions: post-emergence method, application rate 16.0 g/ha; scale 0 to 100
Text: as §1, §2, §3, §4

ABUTH [8] = test: greenhouse herbicidal activity, pre-emergence treatment; assay type: in vivo, Abutilon theophrasti; conditions: pre-emergence method, application rate 0,250 kg/ha; scale 0 to 100
Text: as §1, §2, §3, §4

COC(=O)[C@@H]1C=C[C@H](NC(=O)C2(C)CN(c3cc(C)cc(F)c3)C2=O)C1 (relative stereo) [compound 141]
herbicidal activity against SETFA (SETFA [1]; application rate 0,250 kg/ha): good (A good herbicidal activity is given at values of 80 to 90)
herbicidal activity against ECHCG (ECHCG [2]): good (A good herbicidal activity is given at values of 80 to 90)
herbicidal activity against ECHCG (ECHCG [3]; application rate 0,250 kg/ha): good (A good herbicidal activity is given at values of 80 to 90)

COC(=O)[C@@H]1C=C[C@H](NC(=O)C2(C)CN(c3cccc(OC(F)(F)C(F)F)c3)C2=O)C1 (relative stereo) [compound 146]
herbicidal activity against AVEFA (AVEFA; application rate 0,250 kg/ha): good (A good herbicidal activity is given at values of 80 to 90)

COC(=O)CC(C)NC(=O)C1(C)CN(c2cc(Cl)cc(Cl)c2)C1=O (stereo not shown) [compound 11]
herbicidal activity against SETFA (SETFA [1]; application rate 1,000 kg/ha): very good (a very good herbicidal activity is given at values of 90 to 100)
herbicidal activity against APESV (APESV): very good (a very good herbicidal activity is given at values of 90 to 100)
herbicidal activity against ECHCG (ECHCG [3]; application rate 1,000 kg/ha): very good (a very good herbicidal activity is given at values of 90 to 100)

CCOC(=O)CC(C)NC(=O)C1(OC)CN(c2cc(Cl)cc(Cl)c2)C1=O (stereo not shown) [compound 13]
herbicidal activity against AMARE (AMARE [4]): good (A good herbicidal activity is given at values of 80 to 90)

CCC1(C(=O)NC(C)CC(=O)OC)CN(c2cc(Cl)cc(Cl)c2)C1=O (stereo not shown) [compound 125]
herbicidal activity against AMARE (AMARE [5]): good (A good herbicidal activity is given at values of 80 to 90)

COC(=O)CC(C)NC(=O)C1CN(c2cc(Cl)cc(Cl)c2)C1=O (stereo not shown) [compound 131]
herbicidal activity against ABUTH (ABUTH [6]; application rate 1,000 kg/ha): very good (a very good herbicidal activity is given at values of 90 to 100)

CC1(C(=O)NC2C=CC(C(=O)O)C2)CN(c2cc(F)cc(F)c2)C1=O (stereo not shown) [compound 133]
herbicidal activity against AVEFA (AVEFA; application rate 62.5 g/ha): very good (a very good herbicidal activity is given at values of 90 to 100)
herbicidal activity against SETFA (SETFA [7]): very good (a very good herbicidal activity is given at values of 90 to 100)
herbicidal activity against ALOMY (ALOMY; application rate 62.5 g/ha): good (A good herbicidal activity is given at values of 80 to 90)

COC(=O)C1C=CC(NC(=O)C2(C)CN(c3cccc(Cl)c3)C2=O)C1 (stereo not shown) [compound 136]
herbicidal activity against AVEFA (AVEFA; application rate 16.0 g/ha): very good (a very good herbicidal activity is given at values of 90 to 100)
herbicidal activity against SETVI (SETVI): very good (a very good herbicidal activity is given at values of 90 to 100)
herbicidal activity against LOLMU (LOLMU): very good (a very good herbicidal activity is given at values of 90 to 100)

COC(=O)CC(C)NC(=O)C1(C)CN(c2cc(C)cc(F)c2)C1=O (stereo not shown) [compound 142]
herbicidal activity against ABUTH (ABUTH [8]): good (A good herbicidal activity is given at values of 80 to 90)
herbicidal activity against ALOMY (ALOMY; application rate 0,250 kg/ha): good (A good herbicidal activity is given at values of 80 to 90)

COC(=O)C1C=CC(NC(=O)C2(C)CN(c3ccc(F)c(C#N)c3)C2=O)C1 (stereo not shown) [compound 147]
herbicidal activity against ABUTH (ABUTH [6]; application rate 0,250 kg/ha): very good (a very good herbicidal activity is given at values of 90 to 100)

Reference: US12389910B2, “Beta-lactams and their use as herbicides” (BASF SE, priority 2020, dated 2025)
